Patent publication US20040053966A1, “Chemical derivatives and their application as antitelomerase agent” (Aventis Pharms S.A., priority 1999, published 2004)
Where a name gives a salt, the structure may show the parent alone. Read-outs that look alike come from different tables or passages of the source.

Legend:
[1] = test system: G-quadruplex of oligonucleotide GGGTTAGGGTTAGGGTTAGGG (3.5 repeats of the human telomeric motif); assay: G-quadruplex stabilizing activity, fluorescence Tm (FAM+DABCYL oligonucleotide); type: binding; details: test product 1 μM, oligonucleotide 0.2 μM, 0.1 M LiCl, 10 mM cacodylate pH 7.6; reference without product 44° C.
Text: The G-quadruplex stabilizing activity may be determined by a method using the formation of a complex with fluorescein of which the experimental protocol is described below. Oligonucleotides […] The oligonucleotide FAM+DABCYL carries the catalogue reference OL-0371-0802. It has the sequence: […] The fluorescein is attached to the 5' end, the DABCYL to the 3' end, by the chemical arms described by Eurogentec. The concentration of the samples is checked by spectrophotometry, recording the absorbance spectrum between 220 and 700 nm and using the molar extinction coefficient provided by the supplier. Buffers All the experiments were carried out in a 10 mM sodium cacodylate buffer pH 7.6 containing 0.1 M lithium chloride (or sodium chloride). The absence of fluorescent contamination in the buffer was checked beforehand. The fluorescent oligonucleotide is added at the final concentration of 0.2 μM. Study of Fluorescence All the measurements of fluorescence were carried out on a Spex Fluorolog DMlB apparatus, using an excitation line width of 1.8 nm and an emission line width of 4.5 nm. The samples are placed in a microquartz cuvette of 0.2×1 cm. The temperature of the sample is controlled by an external water bath. The oligonucleotide alone was analysed at 20, 30, 40, 50, 60, 70 and 80° C. The emission spectra are recorded using an excitation wavelength of 470 nm. The excitation spectra are recorded using either 515 nm or 588 nm as emission wavelength. The spectra are corrected for the response of the instrument by reference curves. A high extinction (80-90%) of the fluorescence of fluorescein at room temperature is observed, in agreement with an intramolecular folding of the oligonucleotide at 20° C. in the form of a G-quadruplex, which induces juxtaposition of its [NT] ends which are respectively linked to fluorescein and to DABCYL. This juxtaposition causes an already-described phenomenon of extinction of fluorescence which is used for “molecular beacons”. Fluorescence Tm: […] The samples are then allowed to incubate for at least 1 hour at 20° C. before each measurement. The use of longer incubation times (up to 24 hours) has no influence on the result obtained. Each experiment allows the measurement of only one sample. The latter is first incubated at an initial temperature of 20° C., heated to 80° C. over 38 minutes, left for 5 minutes at 80° C. and then cooled to 20° C. over 62 minutes. During this time, the fluorescence is measured simultaneously at two emission wavelengths (515 nm and 588 nm) using 470 nm as excitation wavelength. A measurement is carried out every 30 seconds. The temperature of the water bath is recorded in parallel, and the fluorescence profile as a function of the temperature is reconstituted from these values. The fluorescence profiles are then normalized between 20° C. and 80° C., and the temperature for which the intensity of emission at 515 nm is the mean of those at high and low temperature is called Tm. Under these conditions, the Tm of the reference sample without addition of product is 44° C. in a lithium chloride buffer. This temperature is increased to more than 55° C. in a sodium chloride buffer. The addition of a G-quadruplex-stabilizing compound induces an increase in the Tm. This increase is judged to be significant if it is greater than […].

[2] = test system: human telomerase (HL60 cell extract); assay: Antitelomerase activity, TRAP (extension of oligonucleotide TS and PCR amplification); type: biochemical; details: telomerase extract from HL60 cells
[3] = test system: A549 cells; assay: Cytotoxic activity on human tumour line A549 (neutral red); type: cell-based; details: 96 hours incubation, read-out: Cytotox. A549 IC50
Method: The Cytotoxic Biological Activity on Human Tumour Lines is Determined According to the Following Experimental Protocol:
The cells at the exponential growth phase are trypsinized, washed in 1× PBS and are inoculated in 96-well microplates (Costar) in an amount of 4×10^4 cells/ml for A549 and of 1.5×10^4 cells/ml (0.2 ml/well) and then incubated for 96 hours in the presence of variable concentrations of product to be studied (10, 1, 0.1 and 0.01 μg/ml, each point in quadruplicate). 16 hours before the end of the incubation, 0.02% final of neutral red is added to each well. At the end of the incubation, the cells are washed with 1× PBS and lysed with 1% sodium lauryl sulphate. The cellular incorporation of the dye, which reflects cellular growth, is evaluated by spectrophotometry at a wavelength of 540 nm for each sample with the aid of a Dynatech MR5000 reading apparatus.
(compound value−blank value/cell control value−blank value)×100.

Row | Structure (SMILES) | FLUORESCENCE Tm [1] [° ° C.] | IC50 [2] [µM] | IC50 ([3]; Homo sapiens, A549, 96 h) [µM] | IC50 [3] [µM] | G4 Tm [1] [°C]
1 | CC[n+]1c(C)cc(N)c2cc(Nc3nc(N)nc(Nc4ccc5c(c4)c(N)cc(C)[n+]5CC)n3)ccc21 [Example 2, 2-amino-bis-4,6-[(1′-ethyl-4′-amino-6′-quinaldinio)amino]triazine dichloride] | 48 | 0.056 | 4.7 | – | –
2 | CNc1nc(Nc2ccc3nc(C)cc(N)c3c2)nc(Nc2ccc3nc(C)cc(N)c3c2)n1 [Example 4, 2-methylamino-bis-4,6-[(4′-amino-6′-quinaldinyl)amino]triazine trihydrochloride] | 48 | 0.51 | 3.1 | – | –
3 | CNc1nc(Nc2ccc3nc(C)cc(NC)c3c2)nc(Nc2ccc3nc(C)cc(NC)c3c2)n1 [Example 6, 2-methylamino-bis-4,6-[(4′-methylamino-6′-quinaldinyl)amino]triazine dichloride trihydrochloride] | 44 | 0.3 | 1.9 | – | –
4 | C[n+]1c2ccccc2c(N)c2cc(Nc3nc(N)nc(Nc4ccc5c(c4)c(N)c4ccccc4[n+]5C)n3)ccc21 [Example 7, 2-amino-bis-4,6-[(9′-amino-10′-methyl-2′-acridinio)amino]triazine dichloride hydrochloride] | 55 | 0.89 | 4.9 | – | –
5 | Cc1cc(N(C)C)c2cc(Nc3nc(Cl)nc(Nc4ccc5nc(C)cc(N(C)C)c5c4)n3)ccc2n1 [Example 11, 2-chloro-bis-4,6-[(4′-dimethylamino-6′-quinaldinyl)amino]triazine dihydrochloride dihydrate] | 57 | 3 | 5.14 | – | –
6 | Cc1cc(N)c2cc(Nc3ccnc(Nc4ccc5nc(C)cc(N)c5c4)n3)ccc2n1.Cl.Cl.Cl.O.O.O.O.O [Example 15, bis-2,4-[(4′-amino-6′-quinaldinyl)amino]pyrimidine trihydrochloride pentahydrate] | 53 | 0.49 | – | 8.7 | –
7 | CSc1nc(Nc2ccc3nc(C)cc(N)c3c2)nc(Nc2ccc3nc(C)cc(N)c3c2)n1 [Example 17-1] | – | 0.049 | 1.6 | – | 57
8 | CSc1nc(Nc2ccc3nc(C)cc(N)c3c2)nc(Nc2ccc3nc(C)cc(N(C)C)c3c2)n1 [Example 18-3] | – | 0.34 | 10 | – | 57
9 | CSc1nc(Nc2ccc(C#N)cc2)nc(Nc2ccc3nc(C)cc(N)c3c2)n1 [Example 18-7] | – | 3.3 | 8 | – | 51
10 | COc1ccc2nccc(Nc3nc(Nc4ccc5nc(C)cc(N)c5c4)nc(SC)n3)c2c1 [Example 18-9] | – | 3.4 | 9.5 | – | 51
11 | CSc1nc(Nc2ccc3nc[nH]c3c2)nc(Nc2ccc3nc(C)cc(N)c3c2)n1 [Example 18-10] | – | 3.3 | 10 | – | 49
12 | CCn1c2ccccc2c2cc(Nc3nc(Nc4ccc5nc(C)cc(N)c5c4)nc(SC)n3)ccc21 [Example 18-11] | – | 3.3 | 1.3 | – | 48
13 | CCN(CC)c1nc(Nc2ccc3ncccc3c2)nc(Nc2ccc3nc(C)cc(N)c3c2)n1 [Example 19-1] | – | 1 | 1.5 | – | 58
